The target of series [1] is T1, isolated C-terminal domain (CTD) (220–288) (Human immunodeficiency virus type 1 group M subtype B, UniProt P12497).
T1 construct: the isolated C-terminal domain (CTD) (220–288); made in house; host or cells: E. coli RosettaII
The series is described as follows: Schiff base IN-DNA crosslinking assay, isolated CTD. Type of series: binding, HIV-1. The source says: (§1) To gain further evidence that NSC34931 interferes with DNA binding, and to determine the role of outer domains in this inhibition, we evaluated the ability of NSC34931 to inhibit the formation of IN-DNA crosslinks using our previously described Schiff base assay. Briefly, a deoxyuracyl nucleotide is incorporated in the DNA substrate to generate an abasic site via uracyl DNA glycosylase. IN forms a covalent complex (Schiff base), which can be stabilized by reduction with sodium borohydride (Figure 5A). Full-length IN, but also the isolated CCD or CTD domains, can crosslink DNA ([…]). Consistent with anisotropy data, NSC34931 suppresses the formation of IN-DNA crosslinks in the context of the full-length IN (Figure 5B, upper gel). Of note, the effective dose to inhibit this reaction is similar to that needed to inhibit 3′-P or ST (about 0.45 µM). In contrast, the IN CCD requires a 10 times higher concentration of compound to prevent DNA crosslinking, confirming that the NTD or the CTD are important for NSC34931 inhibition. Lastly, the same experiment was conducted with the isolated CTD (Figure 5B, lower gel).
(§2) Figure 5 Inhibition of IN-DNA binding by NSC34931. (A) Principle of the Schiff base crosslinking assay. An abasic site was introduced by uracil DNA glycosylase in the DNA substrate at the -12 position. […]

The test system of series [2] is VSV pseudo-typed HIV-1 virus particles. The series is described as follows: organism not typed. Type of series: cell-based.
A short description of series [3]: in vitro. The settings on record: human.
Series [4] has as its target T2, HIV-1 IN mutant Y143R (Human immunodeficiency virus type 1 group M subtype B, UniProt P12497, Y1290R).
T2 construct: RAL-resistant HIV-1 mutant integrases; made in house; host or cells: E. coli RosettaII
Kind of series: Gel-based IN strand transfer assay, Y143R mutant. Type of series: biochemical. Here is the method: (§3) IN reactions were carried out by adding drugs or an equivalent volume of 100% DMSO (dimethyl sulfoxide, used as the drug solvent) to a mixture of 20 nM duplex DNA (21T/21B) and 400 nM IN in 50 mM MOPS pH 7.2, 7.5 mM MgCl2, and 14 mM 2-mercaptoethanol. Reactions were performed at 37 °C for 2 h and quenched by addition of an equal volume of loading buffer [formamide containing 1% SDS (sodium dodecyl sulfate), 0.25% bromophenol blue, and xylene cyanol]. Reaction products were separated in 16% polyacrylamide denaturing sequencing gels. Dried gels were visualized using a Typhoon 8600 (GE Healthcare, Piscataway, NJ, USA). Densitometric analyses were performed using the ImageQuant 5.1 software from GE Healthcare. Data analyses (linear regression, IC50 determination, and standard deviation) were performed using Prism 6.05 software from GraphPad.

Series [5] concerns the target T3, IN-DNA binding (Human immunodeficiency virus type 1 group M subtype B, UniProt P12497).
T3 construct: 250 nM of recombinant HIV-1 integrase; made in house; host or cells: E. coli RosettaII
Kind of series: IN-DNA binding by fluorescence anisotropy. On the set-up: species or system HIV-1. The source says: Although the CCD alone harbors all of the structural determinants of the active site to support the catalytic activity, the NTD and CTD have been implicated in both the quaternary architecture of the enzyme and DNA binding. Because outer domains (NTD and/or CTD) appeared important in the inhibition of IN by NSC34931, we wondered if stilbene disulfonic acid derivatives might compete with DNA binding. To test whether NSC34931 competed with substrate binding, we developed a plate-based assay with a fluorescent DNA substrate.
In addition, controls with DMSO (0 µM) or without IN (DNA only) were included. Data represent the mean of three independent experiments.
DNA binding was measured using a plate-based assay as previously described. […] Compounds or DMSO were incubated at room temperature for 5 min in the IN-activity buffer, in the absence or the presence of IN (400 nM). After addition of the DNA (10 nM), fluorescence anisotropy was measured every 30 s for 30 min using an Envision plate reader (Perkin Elmer, Waltham, MA, USA).
In general terms: In fluorescence polarisation assays a small probe gives low polarisation when free and higher when bound to something large.

Series [6] concerns the target T4, HIV-1 IN (WT) (Human immunodeficiency virus type 1 group M subtype B, UniProt P12497).
T4 construct: 250 nM of recombinant HIV-1 integrase; made in house; host or cells: E. coli RosettaII
Kind of series: Gel-based IN strand transfer assay, WT enzyme. In kind it is biochemical. As for the experimental part: as §3

Series [7] addresses T5, full-length IN (1–288) (Human immunodeficiency virus type 1 group M subtype B, UniProt P12497).
T5 construct: using full-length IN (1–288), the isolated catalytic core domain (CCD) (51–212); made in house; host or cells: E. coli RosettaII
The series is described as follows: Schiff base IN-DNA crosslinking assay, full-length IN. In kind it is binding, HIV-1.
Text: as §1, §2

For series [8], the system named is HIV-1. Also noted: method as in http://dtp.nci.nih.gov, [7]. The settings on record: ref http://dtp.nci.nih.gov, [7]; cited from earlier work.
In series [9] the target is T6, HIV-1 IN mutant N155H (Human immunodeficiency virus type 1 group M subtype B, UniProt P12497, N1302H).
T6 construct: RAL-resistant HIV-1 mutant integrases; made in house; host or cells: E. coli RosettaII
The series is described as follows: biochemical. Type of series: biochemical. As for the experimental part:
as §3

Read-outs that look alike come from different tables or passages of the source.

These results are taken from publication PMC6832134, “Discovery of Novel Integrase Inhibitors Acting outside the Active Site Through High-Throughput Screening” (Molecules, 2019).

`O=S(=O)(O)c1cc(/N=N/c2cc(S(=O)(=O)O)c3ccccc3c2O)ccc1/C=C/c1ccc(/N=N/c2cc(S(=O)(=O)O)c3ccccc3c2O)cc1S(=O)(=O)O` [NSC34931]: the “inhibition of CTD-DNA crosslinks” value in [1] is listed as “in the same concentration range than in the context of the full-length enzyme”. Further, in series [2], the “Selectivity Index SI” value is listed as 19.2. Besides, in series [2] (read-out: Ex Vivo Antiviral Activity EC50), the EC50 – broadly, the concentration that produces a half-maximal response – stood at 3.07 µM. This compound gave a CC50 in series [3] of 59 µM. Besides, the IC50 amounted to 240 nM in series [4]; 180 ± 70 nM in series [6] (gel-based assay, coupled ST, at least three independent experiments, read-out: In Vitro IC50 +/−SD, ST); 230 nM in [6] (precleaved substrate (bypassing the 3'-P step), data not shown, read-out: IC50, ST inhibition with precleaved substrate); 160 nM in series [9]. Besides, the “fold lower concentration for IN-DNA binding inhibition than for inhibition of 3'-P and ST” value in series [5] is reported as “about 10”. Also, the “concentration giving full inhibition of IN-DNA binding” value in series [5] (fluorescence anisotropy) is on record as 51 nM. The “effect on IN substrate (DNA) binding” value in series [5] (fluorescence anisotropy over 30 min) was “strongly and durably prevented IN-DNA binding”. Moreover, the “activity with Mg2+ or Mn2+ as metal cofactor” value in series [6] (data not shown) was “equally active”. In addition, the “effective dose to inhibit IN-DNA crosslink formation” value in [7] was “about 0.45 µM”. Moreover, the “antiviral activity in HIV-1 cytopathic assay” value in series [8] is “antiviral”.
